In one data set the test system is NIH3T3 cells. As to the kind of experiment: RT-PCR of fibroblast activation markers, TGF-β1 and inflammatory factors in dECM-stimulated fibroblast. In kind it is cell-based, mouse. As to conditions: for mRNA levels of α-SMA, FN, Col I and TGF-β1: peptide, induced by dECM-Nor and dECM-PF. As for the experimental part: (§1) Decellularized lung ECM (dECM) was prepared as described in previous study. 2 × 10^5 cells/mL NIH3T3 cells (mouse […], purchased from the Stem Cell Bank of the Chinese Academy of Sciences, Shanghai, China) were seeded on the dECM slices attached to the bottom of the culture dish and cultured in DMEM medium containing 0.5% fetal bovine serum (Gibco, Waltham, MA, USA) at 37°C and 5% CO2.
(§2) Total RNA was extracted from cells or lung tissue (10 mg) using Trizol reagent, and mRNA was reverse transcribed into cDNA using HiScript® II QRT SuperMix for qPCR (Vazyme, #R223-01). Real-time fluorescence quantitative PCR (RT-PCR) was performed using Hieff® qPCR SYB Green Master Mix (YEASEN, #11201ES08) to obtain the Ct value. The 2^−ΔΔCt method was used to obtain the relative expression level of mRNA in each group. Primers (Table 1) were purchased from Sangon Biotech.

In data set [1] the test system is integrin-αvβ1, FAK/AKT and PKCα/NF-κB pathways in NIH3T3 cells. As to the kind of experiment: Western blot of signaling proteins in dECM-stimulated fibroblast. To be noted: dECM, n=3; for protein levels of α-SMA, integrin-αv, p-FAK and p-PKCα: designed peptides. In kind it is cell-based, mouse. As for the experimental part:
as §1
20 mg of lung tissue was extracted with RIPA lysis buffer (Roche International Ltd., Bermuda, USA), and the protein concentration was determined using a BCA protein detection kit (Roche). Protein samples were separated by 10% sodium dodecyl sulfate polyacrylamide gel (SDS-PAGE) electrophoresis and transferred to a PVDF membrane. After blocking, the PVDF membrane was incubated with primary antibodies for α-SMA, Integrin-αV, SDC4, Integrin-β1, p-Smad3, FAK, and p-FAK (CST, #19245, #4711, #12236S, #34971, #9520S, #3285S, and #3284S) at 4°C overnight, followed by incubation with secondary antibodies (CST, #7074P2), development with ECL reagent (SAB), and acquisition of images with a chemiluminescence imaging system (ChemiScope 5600).
Background: Immunoblotting shows a protein as a band on a membrane.

In another data set the target is integrin-αvβ1 (Homo sapiens, UniProt P05556+P06756). As to the kind of experiment: SPR binding of peptides to integrin-αvβ1 (Biacore 8K+). To be noted: Biacore 8K+, 25°C, integrin-αvβ1 on CM5 chip, PBS + 0.05% Tween-20, peptide 0.78-100 μM, Figure 7E, small labels, best readings. As for the experimental part: The Biacore 8K+ system (GE Healthcare) was used at 25°C. The ligand integrin-αvβ1 (1 mg/mL) was routinely coupled to the sensor chip (Series S Sensor Chip CM5, Cytiva, #100530). The peptide samples SDC4_87-131 and CS-1, -2, -3, -4, -8, -9, -10 were dissolved in PBS, and then, the samples with different concentration gradients (0.78, 1.56, 3.125, 6.25, 12.5, 25, 50, 100 μM) were injected, respectively, under the driving of buffer PBST (PBS + 0.05% Tween-20). The signal intensity was quantified in relative units (RU), and binding affinity was determined using the dissociation constant (Kd). After the experiment, 10 mM glycine-HCl buffer solution (pH = 2) was selected to regenerate the chip surface.
(SPR reads the build-up and loss of mass on a sensor chip optically.)

Another data set concerns pan-integrins. As to the kind of experiment: FN-coating cell adhesion assay (pan-integrins activation). In kind it is cell-based, mouse. To be noted: 100 nM, n=4–5. As for the experimental part:
10 μg/mL Fibronectin (Merck, #10838039001) was dissolved in serum-free DMEM medium and dropped into a 96-well plate, 50 μL per well. The plate was incubated at 4 °C overnight. After blocking with 3% bovine serum albumin at room temperature for 30 min, 4×10^4 cells were inoculated into each well. After incubation for 30 min, the cells were washed, fixed, and stained with crystal violet (5 mg/mL) for 30 min. Then after the crystal violet was dissolved, it was detected using an ELISA reader at 595 nm.

For data set [2], the system named is BLM-induced PF, C57BL/6J mice. The data set is described as follows: BLM-induced PF in mice: RT-PCR of lung tissue. As to conditions: 1 mg/kg tracheal instillation, q3d, n=4–6. The format is in vivo, mouse. As for the experimental part: (§3) After the mice were anesthetized (1% sodium pentobarbital 50 mg/kg was injected intraperitoneally), 150 μL of bleomycin (BLM, 5 mg/mL, BIO-000001) was inhaled into the lungs of the mice by tracheal inhalation instillation. One day later, the mice were randomly divided into model and drug treatment groups, and the mice in the control group were only subjected to saline inhalation.
(§4) Based on the dosage of SDC2 fragment peptide and our experimental results (Supplementary Figure S10A and B), the dosage schedule of SDC4_87-131 was set as follows: starting on the third day after BLM inhalation, 1 mg/kg, administered via trachea infusion once every three days. And Anti-SDC4(93-121) 8 mg/kg was administered on the third and tenth days (reference dosage).
as §2

Data set [3] relates to BLM-induced PF, C57BL/6J mice. As to the kind of experiment: BLM-induced PF in mice: HE, Masson, hydroxyproline. In kind it is in vivo, mouse. As to conditions: 1 mg/kg tracheal instillation. As for the experimental part: C57BL/6J mice (male, 8-to 9-week old, 18–22 g, SPF grade) were purchased from Shanghai Slake Laboratory Animal Co., Ltd. [SCXK (Hu) 2022-0004, Shanghai, China]. […] The mice were housed in an SPF environment with 22–25°C, 46–65% humidity and 12 h/12 h light-dark alternation, with free access to water and food. This animal experiment was approved by the Experimental Animal Welfare Ethics Committee of Fujian Medical University (No. FJMU IACUC 2021-0465), and was carried out in accordance with the National Research Council's Guide for the Care and Use of Laboratory Animals.
as §3, §4
Lung tissue samples were paraffin-embedded, then sliced and dewaxed, and HE and Masson staining were performed respectively. After dehydration and sealing, images were collected and analyzed using a microscope.
100 mg of lung tissue was accurately weighed and processed according to the instructions of the hydroxyproline assay kit (Nanjing Jiancheng, Nanjing, China), and the absorbance was measured at a wavelength of 550 nm. The data were expressed as micrograms (µg) of hydroxyproline per mg of dry lung tissue.

The test system of the next data set is fibroblast. The data set is described as follows: CCK-8 fibroblast viability/toxicity. In kind it is cell-based, mouse. As to conditions: discussion. As for the experimental part: as §1
(A) Schematic diagram of SDC487-131; (B) Effect of SDC487-131 and GRGDNP on fibroblast proliferation at 48 h was determined by CCK-8 method (n=3); (C) Effect of different concentration of SDC487-131 on fibroblast activation induced by d-PF for 48 h (n=5). Note: **p < 0.01 vs. PBS in d-Nor group; #p < 0.05 vs. PBS in d-PF group. d-Nor: dECM-Nor; d-PF: dECM-PF.
Figure S14. The viability of fibroblast after treated with peptides for 48 h was detected by CCK-8 assay.

What is called Kd is the equilibrium constant for the complex coming apart.

integrin-αvβ1, sequence (P06756 31-992 limits assumed): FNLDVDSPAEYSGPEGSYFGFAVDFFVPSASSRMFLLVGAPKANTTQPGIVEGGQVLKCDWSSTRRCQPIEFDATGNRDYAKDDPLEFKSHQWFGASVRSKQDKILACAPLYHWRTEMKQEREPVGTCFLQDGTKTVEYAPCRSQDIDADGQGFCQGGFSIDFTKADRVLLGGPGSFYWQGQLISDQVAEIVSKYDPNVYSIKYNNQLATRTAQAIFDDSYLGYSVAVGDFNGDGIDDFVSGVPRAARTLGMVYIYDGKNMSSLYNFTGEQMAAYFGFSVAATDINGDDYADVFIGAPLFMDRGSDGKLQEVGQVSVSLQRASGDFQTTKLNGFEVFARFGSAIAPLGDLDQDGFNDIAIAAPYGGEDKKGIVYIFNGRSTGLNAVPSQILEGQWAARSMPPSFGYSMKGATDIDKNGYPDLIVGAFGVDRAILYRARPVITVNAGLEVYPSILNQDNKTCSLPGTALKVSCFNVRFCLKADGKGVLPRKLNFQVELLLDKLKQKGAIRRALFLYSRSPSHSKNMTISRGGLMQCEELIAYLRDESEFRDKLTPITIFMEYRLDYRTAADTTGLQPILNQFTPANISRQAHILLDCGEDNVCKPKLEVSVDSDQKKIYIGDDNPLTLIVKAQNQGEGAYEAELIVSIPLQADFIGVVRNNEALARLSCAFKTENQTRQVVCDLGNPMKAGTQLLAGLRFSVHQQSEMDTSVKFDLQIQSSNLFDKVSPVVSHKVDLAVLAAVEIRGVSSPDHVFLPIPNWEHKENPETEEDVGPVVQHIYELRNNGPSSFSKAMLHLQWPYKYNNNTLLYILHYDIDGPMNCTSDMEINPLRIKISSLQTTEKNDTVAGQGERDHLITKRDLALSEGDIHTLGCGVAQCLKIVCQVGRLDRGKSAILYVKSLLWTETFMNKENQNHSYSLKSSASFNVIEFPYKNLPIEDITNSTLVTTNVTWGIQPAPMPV
integrin-αvβ1, sequence (P05556 21-728 partner limits assumed): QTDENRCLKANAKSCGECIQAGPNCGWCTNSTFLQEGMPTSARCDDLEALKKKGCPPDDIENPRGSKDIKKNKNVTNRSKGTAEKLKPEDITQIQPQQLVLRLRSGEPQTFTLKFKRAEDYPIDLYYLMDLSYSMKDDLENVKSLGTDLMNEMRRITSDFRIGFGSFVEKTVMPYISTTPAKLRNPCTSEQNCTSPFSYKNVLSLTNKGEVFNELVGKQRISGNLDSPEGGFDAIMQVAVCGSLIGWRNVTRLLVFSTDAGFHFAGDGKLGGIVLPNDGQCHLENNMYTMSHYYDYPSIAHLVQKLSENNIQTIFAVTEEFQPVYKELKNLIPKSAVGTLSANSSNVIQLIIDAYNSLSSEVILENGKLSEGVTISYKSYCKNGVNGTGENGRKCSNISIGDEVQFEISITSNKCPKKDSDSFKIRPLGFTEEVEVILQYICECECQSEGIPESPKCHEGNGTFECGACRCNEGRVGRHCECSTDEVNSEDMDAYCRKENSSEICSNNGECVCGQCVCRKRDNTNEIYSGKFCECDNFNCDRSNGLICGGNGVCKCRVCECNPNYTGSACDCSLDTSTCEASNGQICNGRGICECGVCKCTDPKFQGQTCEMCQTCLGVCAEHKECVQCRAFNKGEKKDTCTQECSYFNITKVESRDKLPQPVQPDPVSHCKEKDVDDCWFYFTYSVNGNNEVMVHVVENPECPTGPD

As to `CS(=O)(=O)c1cccc(CNc2nc(Nc3ccc4c(c3)CCC(=O)N4)ncc2C(F)(F)F)c1` [PF-573228, reference compound], the “dECM-PF-induced fibroblast activation and TGF-β1 upregulation” value in the data set with NIH3T3 cells (1 μM, 3 μM, mRNA levels, n=4) is “significantly reduced dECM-PF-induced fibroblast activation and TGF-β1 upregulation in a dose-dependent manner”.
Regarding “Ac-NHIPERAVPTEPKKLSPVEESEDITNSTLVTTNVT-NH2 [CS-4]”, the “effects on FN and Col I mRNA vs SDC4_87-131” value in the data set on NIH3T3 cells (dECM, n=5) is “significantly greater than those of SDC4_87-131”. The “mRNA levels of α-SMA, FN, Col I and TGF-β1” value (“mRNA levels of α-SMA, FN” below) with NIH3T3 cells (n=5) is recorded as “significantly downregulate”. Moreover, in data set [1], the “reduction of integrin-αv and p-FAK vs SDC4_87-131” value is “weaker reduction in integrin-αv and p-FAK compared to SDC4_87-131”; the “protein levels of α-SMA, integrin-αv, p-FAK and p-PKCα” value (from here on “protein levels … p-FAK and p-PKCα”) is “significantly decrease the protein levels”. Moreover, the Kd on integrin-αvβ1 was found to be 32.3 nM. Besides, the “inhibition of pan-integrins activation vs SDC4_87-131” value (“inhibition … vs SDC4_87-131” below) with pan-integrins was “stronger than that of SDC4_87-131”.
With “Ac-NHIPERAGSGSQVPTEPKKLSPVEESEDVSNKVSMTTNVT-NH2 [CS-1]”, at integrin-αvβ1, the dissociation constant (Kd) was 12.8 nM.
For the compound “Ac-GSADPRAVPTEPKKLSPVEESEDITNSTLV-NH2 [CS-10]”, in the data set on NIH3T3 cells (dECM, n=5), the “effects on FN and Col I mRNA vs SDC4_87-131” value is given as “significantly greater than those of SDC4_87-131”. Further, in the data set with NIH3T3 cells (n=5), the “mRNA levels of α-SMA, FN” value is “significantly downregulate”. Moreover, the “protein levels … p-FAK and p-PKCα” value in data set [1] is “significantly decrease the protein levels”. Also, the Kd on integrin-αvβ1 amounted to 35.4 nM. In the data set on pan-integrins, the “inhibition … vs SDC4_87-131” value is on record as “stronger than that of SDC4_87-131”.
Take “Ac-NHIPERAVPTEPKKLSPVEESEDITNSTLV-NH2 [CS-8]”: in the data set with NIH3T3 cells (dECM, n=5), the “effects on FN and Col I mRNA vs SDC4_87-131” value is on record as “significantly greater than those of SDC4_87-131”. The “mRNA levels of α-SMA, FN” value in the data set on NIH3T3 cells (n=5) was “significantly downregulate”. The “protein levels … p-FAK and p-PKCα” value in data set [1] is given as “significantly decrease the protein levels”. Besides, on integrin-αvβ1, the Kd was 25.9 nM. Besides, the “inhibition … vs SDC4_87-131” value with pan-integrins is “stronger than that of SDC4_87-131”.
As to “Ac-NHIPERAGSGSQVPTEPKKLSPVEESEDWSNKVSM-NH2 [CS-3]”, the “effects on FN and Col I mRNA vs SDC4_87-131” value in the data set with NIH3T3 cells (dECM, n=5) is “significantly greater than those of SDC4_87-131”. Moreover, the “mRNA levels of α-SMA, FN” value in the data set with NIH3T3 cells (n=5) is “significantly downregulate”. Besides, the “protein levels … p-FAK and p-PKCα” value in data set [1] is on record as “significantly decrease the protein levels”. In addition, the Kd on integrin-αvβ1 came to 64.9 nM. Further, the “inhibition … vs SDC4_87-131” value in the data set on pan-integrins was “stronger than that of SDC4_87-131”.
Consider “Ac-NHIPETVEDPEPKKLSPVEESEDITNSTLV-NH2 [CS-9]”, for which, in the data set on NIH3T3 cells (dECM, n=5), the “downregulation of all four mRNAs (α-SMA, FN, Col I, TGF-β1) vs SDC4_87-131” value was “significantly higher than that of SDC4_87-131”; the “effects on FN and Col I mRNA vs SDC4_87-131” value was “significantly greater than those of SDC4_87-131”. In the data set on NIH3T3 cells (n=5), the “mRNA levels of α-SMA, FN” value is given as “significantly downregulate”. Moreover, in data set [1], the “reduction of α-SMA protein vs SDC4_87-131” value is reported as “stronger reduction in α-SMA than SDC4_87-131”; the “protein levels … p-FAK and p-PKCα” value is listed as “significantly decrease the protein levels”. Further, the Kd at integrin-αvβ1 came to 10.9 nM. Also, the “effects on α-SMA, FN and IL-6 vs SDC4_87-131” value in data set [2] is given as “significantly stronger than that of SDC4_87-131”. For the same compound, the “inhibition … vs SDC4_87-131” value with pan-integrins is given as “stronger than that of SDC4_87-131”. Besides, the “inhibitory effect on collagen deposition vs SDC4_87-131” value in data set [3] (q3d from day 3) is recorded as “significantly stronger inhibitory effect on collagen deposition than SDC4_87-131”. Besides, in data set [3] (overall, q3d), the “anti-PF effect vs SDC4_87-131” value is on record as “significantly enhanced anti-PF effect compared with SDC4_87-131”. Further, in the data set on fibroblast, the “toxicity (summary)” value is given as “low toxicity”.
With “Ac-NHIPERAGSGSQVPTEPKKLSPVEESEDRSNKVSM-NH2 [CS-2]”, the dissociation constant Kd on integrin-αvβ1 turned out to be 29.1 nM.

For the origin of these results see paper PMC12313019, “Fibrotic lung ECM upregulates SDC4/integrin-αvβ1 interaction and the interfering peptide SDC4_87-131 and its derivative peptides alleviate pulmonary fibrosis” (Regenerative Biomaterials, 2025).
